Results from patent US20250002487A1, “HETEROCYCLIC COMPOUNDS AND USES THEREOF” (Ventus Therapeutics U.S., Inc., priority 2021, published 2025).

Biological target: human-cGAS (h-cGAS) (Homo sapiens, UniProt Q8N884)
Assay: hcGAS Kinase-Glo Assay
Type: biochemical
Conditions: 40 nM h-cGAS, 100 μM ATP, 100 μM GTP, 25 nM dsDNA, 3 h incubation, read-out: hcGAS potency IC50
Procedure: In some embodiments, the compounds of the instant disclosure may be tested for their human-cGAS (h-cGAS) inhibition activity using the methodology reported in Lama et al., “Development of human cGAS-specific small molecule inhibitors for repression of double stranded DNA (dsDNA)-triggered interferon expression”, Nature Communications 10, Article number: 2261 (2019), incorporated herein by reference. hcGAS Kinase-Glo Assay Compounds were tested for their human-cGAS (h-cGAS) inhibition activity using the methodology reported in Lama et al., “Development of human cGAS-specific small molecule inhibitors for repression of double stranded DNA (dsDNA)-triggered interferon expression”, Nature Communications 10. Article number: 2261 (2019), which is herein incorporated by reference in its entirety, with slight changes to some conditions as shown in Table B. The results of the assays, expressed in IC50 ranges are reported in Table C with the following designations: A represents an IC50 value <0.1 μM; B represents an IC50 value ≥0.1 μM and <0.5 μM; C represents an IC50 value ≥0.5 μM and <1.0 μM; D represents an IC50 value ≥1.0 μM. [table]

Sequence of human-cGAS (h-cGAS) (Q8N884 whole entry): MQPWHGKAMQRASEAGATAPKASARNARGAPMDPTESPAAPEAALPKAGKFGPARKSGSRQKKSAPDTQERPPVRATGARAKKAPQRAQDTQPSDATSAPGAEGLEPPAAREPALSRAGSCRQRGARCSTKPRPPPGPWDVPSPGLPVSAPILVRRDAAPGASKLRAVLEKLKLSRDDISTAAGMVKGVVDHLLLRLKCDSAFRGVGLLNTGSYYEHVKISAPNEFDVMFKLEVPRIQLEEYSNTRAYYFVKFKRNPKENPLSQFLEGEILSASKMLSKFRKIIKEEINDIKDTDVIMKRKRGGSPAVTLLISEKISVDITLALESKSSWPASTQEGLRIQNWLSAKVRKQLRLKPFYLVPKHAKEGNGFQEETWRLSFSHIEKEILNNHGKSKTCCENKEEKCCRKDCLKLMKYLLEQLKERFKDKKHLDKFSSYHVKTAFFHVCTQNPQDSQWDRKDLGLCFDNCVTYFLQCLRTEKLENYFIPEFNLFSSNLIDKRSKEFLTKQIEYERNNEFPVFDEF

Row | SMILES | IC50
1 | CSc1nnc(NC(=O)c2cc(C3CCCC3)no2)s1 [Compound 85, 3-cyclopentyl-N-(5-(methylthio)-1,3,4-thiadiazol-2-yl)isoxazole-5-carboxamide] | 500 to 1000 nM
2 | CN(C)C(=O)c1cc(C(=O)Nc2nnc(-c3ccccc3Cl)s2)on1 [Compound 87, N5-(5-(2-chlorophenyl)-1,3,4-thiadiazol-2-yl)-N3,N3-dimethylisoxazole-3,5-dicarboxamide] | 500 to 1000 nM
3 | COCCNC(=O)c1cc(C(=O)Nc2nnc(-c3ccccc3Cl)s2)on1 [Compound 88, N5-(5-(2-chlorophenyl)-1,3,4-thiadiazol-2-yl)-N3-(2-methoxyethyl)isoxazole-3,5-dicarboxamide] | 500 to 1000 nM
4 | CNC(=O)c1cc(C(=O)Nc2nnc(-c3ccccc3Cl)s2)on1 [Compound 89, N5-(5-(2-chlorophenyl)-1,3,4-thiadiazol-2-yl)-N3-methylisoxazole-3,5-dicarboxamide] | 500 to 1000 nM
5 | O=C(NO)c1cc(C(=O)Nc2nnc(-c3ccccc3Cl)s2)on1 [Compound 90, N5-(5-(2-chlorophenyl)-1,3,4-thiadiazol-2-yl)-N3-hydroxyisoxazole-3,5-dicarboxamide] | 100 to 500 nM
6 | CONC(=O)c1cc(C(=O)Nc2nnc(-c3ccccc3Cl)s2)on1 [Compound 91, N5-(5-(2-chlorophenyl)-1,3,4-thiadiazol-2-yl)-N3-methoxyisoxazole-3,5-dicarboxamide] | < 100 nM
7 | O=C(Nc1ccccc1)c1cc(C(=O)Nc2nnc(-c3ccccc3Cl)s2)on1 [Compound 92, N5-(5-(2-chlorophenyl)-1,3,4-thiadiazol-2-yl)-N3-phenylisoxazole-3,5-dicarboxamide] | 100 to 500 nM
8 | CSc1nnc(NC(=O)c2cncc(-c3cccs3)c2)s1 [Compound 96, N-(5-(methylthio)-1,3,4-thiadiazol-2-yl)-5-(thiophen-2-yl)-nicotinamide] | 500 to 1000 nM
9 | CSc1nnc(NC(=O)c2noc(N3CCCC(C)(C)C3)n2)s1 [Compound 100, 5-(3,3-dimethylpiperidin-1-yl)-N-(5-(methylthio)-1,3,4-thiadiazol-2-yl)-1,2,4-oxadiazole-3-carboxamide] | ≥ 1000 nM
10 | CSc1nnc(NC(=O)c2noc(N3CCC(C)(C)CC3)n2)s1 [Compound 102, 5-(4,4-dimethylpiperidin-1-yl)-N-(5-(methylthio)-1,3,4-thiadiazol-2-yl)-1,2,4-oxadiazole-3-carboxamide] | ≥ 1000 nM
11 | CSc1nnc(NC(=O)c2noc(-c3ccccn3)n2)s1 [Compound 104, N-[5-(methylsulfanyl)-1,3,4-thiadiazol-2-yl]-5-(132yridine-2-yl)-1,2,4-oxadiazole-3-carboxamide] | 500 to 1000 nM
12 | CSc1nnc(NC(=O)c2noc(-c3cccnc3)n2)s1 [Compound 105, N-[5-(methylsulfanyl)-1,3,4-thiadiazol-2-yl]-5-(pyridin-3-yl)-1,2,4-oxadiazole-3-carboxamide] | ≥ 1000 nM
13 | CSc1nnc(NC(=O)c2nnc(-c3ccccn3)o2)s1 [Compound 106, N-(5-(methylthio)-1,3,4-thiadiazol-2-yl)-5-(pyridin-2-yl)-1,3,4-oxadiazole-2-carboxamide] | 500 to 1000 nM
14 | CSc1nnc(NC(=O)c2nnc(-c3cccnc3)o2)s1 [Compound 107, N-[5-(methylsulfanyl)-1,3,4-thiadiazol-2-yl]-5-(pyridin-3-yl)-1,3,4-oxadiazole-2-carboxamide] | 500 to 1000 nM
15 | CSc1nnc(NC(=O)c2nnc(N3CCCCC3)o2)s1 [Compound 108, N-(5-(methylthio)-1,3,4-thiadiazol-2-yl)-5-(piperidin-1-yl)-1,3,4-oxadiazole-2-carboxamide] | 500 to 1000 nM
16 | CSc1nnc(NC(=O)c2nnc(N3CCCC(C(=O)O)C3)o2)s1 (centres unmarked) [Compound 110, 1-(5-{[5-(methylsulfanyl)-1,3,4-thiadiazol-2-yl]carbamoyl}-1,3,4-oxadiazol-2-yl)piperidine-3-carboxylic acid] | 500 to 1000 nM
17 | CSc1nnc(NC(=O)c2nnc(N(C)C(C)c3ccccc3)o2)s1 (centres unmarked) [Compound 114, 5-[methyl(1-phenylethyl)amino]-N-[5-(methylsulfanyl)-1,3,4-thiadiazol-2-yl]-1,3,4-oxadiazole-2-carboxamide] | 500 to 1000 nM
18 | CSc1nnc(NC(=O)c2nnc(N3CCC(O)C3)o2)s1 (centres unmarked) [Compound 116, 5-(3-hydroxypyrrolidin-1-yl)-N-[5-(methylsulfanyl)-1,3,4-thiadiazol-2-yl]-1,3,4-oxadiazole-2-carboxamide] | 500 to 1000 nM

Now from value to molecule:

Row | IC50 | SMILES
19 | ≥ 1000 nM | Cc1nnc(NC(=O)c2onc3ccccc23)s1 [Compound 81, N-(5-methyl-1,3,4-thiadiazol-2-yl)benzo[c]isoxazole-3-carboxamide]
20 | 500 to 1000 nM | CSc1nnc(NC(=O)c2cc(C(C)C)no2)s1 [Compound 82, 3-isopropyl-N-(5-(methylthio)-1,3,4-thiadiazol-2-yl)isoxazole-5-carboxamide]
21 | ≥ 1000 nM | CSc1nnc(NC(=O)c2cc(-c3cccc(OC(F)(F)F)c3)no2)s1 [Compound 83, N-(5-(methylthio)-1,3,4-thiadiazol-2-yl)-3-(3-(trifluoromethoxy)phenyl)isoxazole-5-carboxamide]
22 | 100 to 500 nM | CSc1nnc(NC(=O)c2cc(C3CCCCC3)no2)s1 [Compound 84, 3-cyclohexyl-N-(5-(methylthio)-1,3,4-thiadiazol-2-yl)isoxazole-5-carboxamide]
23 | 500 to 1000 nM | CSc1nnc(NC(=O)c2cc(C3CCC3)no2)s1 [Compound 86, 3-cyclobutyl-N-(5-(methylthio)-1,3,4-thiadiazol-2-yl)isoxazole-5-carboxamide]
24 | 500 to 1000 nM | Cc1nnc(NC(=O)c2onc3c2ccc2cccnc23)s1 [Compound 93, N-(5-methyl-1,3,4-thiadiazol-2-yl)isoxazolo[4,3-h]quinoline-3-carboxamide]
25 | 100 to 500 nM | CSc1nnc(NC(=O)c2onc3c2ccc2cccnc23)s1 [Compound 94, N-(5-(methylthio)-1,3,4-thiadiazol-2-yl)isoxazolo[4,3-h]quinoline-3-carboxamide]
26 | 500 to 1000 nM | CSc1nnc(NC(=O)c2cc(-c3ccc(Cl)s3)on2)s1 [Compound 95, 5-(5-chlorothiophen-2-yl)-N-(5-(methylthio)-1,3,4-thiadiazol-2-yl)isoxazole-3-carboxamide]
27 | ≥ 1000 nM | O=C(Nc1ccccc1Cl)c1nnn2ccc(=O)[nH]c12 [Compound 97, N-(2-chlorophenyl)-5-oxo-4H-[1,2,3]triazolo[1,5-a]pyrimidine-3-carboxamide]
28 | ≥ 1000 nM | CSc1nnc(NC(=O)c2nnc3n2CCN(C(=O)OC(C)(C)C)C3)s1 [Compound 98, tert-butyl 3-{[5-(methylsulfanyl)-1,3,4-thiadiazol-2-yl]carbamoyl}-5H,6H,8H-[1,2,4]triazolo[4,3-a]pyrazine-7-carboxylate]
29 | ≥ 1000 nM | CSc1nnc(NC(=O)c2noc(N3CCCC3c3ccccc3)n2)s1 (centres unmarked) [Compound 99, N-(5-(methylthio)-1,3,4-thiadiazol-2-yl)-5-(2-phenylpyrrolidin-1-yl)-1,2,4-oxadiazole-3-carboxamide]
30 | ≥ 1000 nM | CSc1nnc(NC(=O)c2noc(N3CCCCC3)n2)s1 [Compound 101, N-[5-(methylthio)-1,3,4-thiadiazol-2-yl]-5-(piperidin-1-yl)-1,2,4-oxadiazole-3-carboxamide]
31 | 500 to 1000 nM | CSc1nnc(NC(=O)c2noc(N3CCCCC3c3ccccc3)n2)s1 (centres unmarked) [Compound 103, N-(5-(methylthio)-1,3,4-thiadiazol-2-yl)-5-(2-phenylpiperidin-1-yl)-1,2,4-oxadiazole-3-carboxamide]
32 | ≥ 1000 nM | CSc1nnc(NC(=O)c2nnc(N3CCCC(O)C3)o2)s1 (centres unmarked) [Compound 109, 5-(3-hydroxypiperidin-1-yl)-N-(5-(methylthio)-1,3,4-thiadiazol-2-yl)-1,3,4-oxadiazole-2-carboxamide]
33 | 100 to 500 nM | CSc1nnc(NC(=O)c2nnc(N3CCCC3C(=O)O)o2)s1 (centres unmarked) [Compound 111, 1-(5-{[5-(methylsulfanyl)-1,3,4-thiadiazol-2-yl]carbamoyl}-1,3,4-oxadiazol-2-yl)pyrrolidine-2-carboxylic acid]
34 | 100 to 500 nM | CSc1nnc(NC(=O)c2nnc(N3CCC(C(=O)O)C3)o2)s1 (centres unmarked) [Compound 112, 1-(5-{[5-(methylsulfanyl)-1,3,4-thiadiazol-2-yl]carbamoyl}-1,3,4-oxadiazol-2-yl)pyrrolidine-3-carboxylic acid]
35 | 500 to 1000 nM | CSc1nnc(NC(=O)c2nnc(N(C)Cc3ccccc3)o2)s1 [Compound 113, 5-[benzyl(methyl)amino]-N-[5-(methylsulfanyl)-1,3,4-thiadiazol-2-yl]-1,3,4-oxadiazole-2-carboxamide]
36 | 500 to 1000 nM | CSc1nnc(NC(=O)c2nnc(N3CCCC3CO)o2)s1 (centres unmarked) [Compound 115, 5-[2-(hydroxymethyl)pyrrolidin-1-yl]-N-[5-(methylsulfanyl)-1,3,4-thiadiazol-2-yl]-1,3,4-oxadiazole-2-carboxamide]
37 | 100 to 500 nM | O=C(Nc1nnc(-c2ccccc2Cl)s1)c1nnc(N2CCC[C@@H]2c2ccccn2)o1 [Compound 117, (R)-N-(5-(2-chlorophenyl)-1,3,4-thiadiazol-2-yl)-5-(2-(pyridin-2-yl)pyrrolidin-1-yl)-1,3,4-oxadiazole-2-carboxamide]
38 | 100 to 500 nM | O=C(Nc1nnc(-c2ccccc2Cl)s1)c1nnc(N2CCC[C@@H]2c2ccccc2)o1 [Compound 118, (R)-N-(5-(2-chlorophenyl)-1,3,4-thiadiazol-2-yl)-5-(2-phenylpyrrolidin-1-yl)-1,3,4-oxadiazole-2-carboxamide]
